Experiments:
Design in all cases: scale not given: the % may be the effect or the level left
[1] = target: Serine/threonine-protein kinase pim-1 (Homo sapiens) (UniProt P11309); experiment: Inhibition of human PIM1 assessed as enzyme activity at 1 uM using RSRHSSYPAGT as substrate preincubated for 20 mins followed by [gamma-33P]-ATP addition and measured after 120 mins by radiometric Hot-SpotSM Kinase assay relative to control
[2] = target: Serine/threonine-protein kinase MRCK gamma (Homo sapiens) (UniProt Q6DT37); experiment: Inhibition of human DMPK2 assessed as enzyme activity at 1 uM using KKRPQRRYSNVF as substrate preincubated for 20 mins followed by [gamma-33P]-ATP addition and measured after 120 mins by radiometric Hot-SpotSM Kinase assay relative to control
Chain of Serine/threonine-protein kinase MRCK gamma (Homo sapiens) (Q6DT37 whole entry): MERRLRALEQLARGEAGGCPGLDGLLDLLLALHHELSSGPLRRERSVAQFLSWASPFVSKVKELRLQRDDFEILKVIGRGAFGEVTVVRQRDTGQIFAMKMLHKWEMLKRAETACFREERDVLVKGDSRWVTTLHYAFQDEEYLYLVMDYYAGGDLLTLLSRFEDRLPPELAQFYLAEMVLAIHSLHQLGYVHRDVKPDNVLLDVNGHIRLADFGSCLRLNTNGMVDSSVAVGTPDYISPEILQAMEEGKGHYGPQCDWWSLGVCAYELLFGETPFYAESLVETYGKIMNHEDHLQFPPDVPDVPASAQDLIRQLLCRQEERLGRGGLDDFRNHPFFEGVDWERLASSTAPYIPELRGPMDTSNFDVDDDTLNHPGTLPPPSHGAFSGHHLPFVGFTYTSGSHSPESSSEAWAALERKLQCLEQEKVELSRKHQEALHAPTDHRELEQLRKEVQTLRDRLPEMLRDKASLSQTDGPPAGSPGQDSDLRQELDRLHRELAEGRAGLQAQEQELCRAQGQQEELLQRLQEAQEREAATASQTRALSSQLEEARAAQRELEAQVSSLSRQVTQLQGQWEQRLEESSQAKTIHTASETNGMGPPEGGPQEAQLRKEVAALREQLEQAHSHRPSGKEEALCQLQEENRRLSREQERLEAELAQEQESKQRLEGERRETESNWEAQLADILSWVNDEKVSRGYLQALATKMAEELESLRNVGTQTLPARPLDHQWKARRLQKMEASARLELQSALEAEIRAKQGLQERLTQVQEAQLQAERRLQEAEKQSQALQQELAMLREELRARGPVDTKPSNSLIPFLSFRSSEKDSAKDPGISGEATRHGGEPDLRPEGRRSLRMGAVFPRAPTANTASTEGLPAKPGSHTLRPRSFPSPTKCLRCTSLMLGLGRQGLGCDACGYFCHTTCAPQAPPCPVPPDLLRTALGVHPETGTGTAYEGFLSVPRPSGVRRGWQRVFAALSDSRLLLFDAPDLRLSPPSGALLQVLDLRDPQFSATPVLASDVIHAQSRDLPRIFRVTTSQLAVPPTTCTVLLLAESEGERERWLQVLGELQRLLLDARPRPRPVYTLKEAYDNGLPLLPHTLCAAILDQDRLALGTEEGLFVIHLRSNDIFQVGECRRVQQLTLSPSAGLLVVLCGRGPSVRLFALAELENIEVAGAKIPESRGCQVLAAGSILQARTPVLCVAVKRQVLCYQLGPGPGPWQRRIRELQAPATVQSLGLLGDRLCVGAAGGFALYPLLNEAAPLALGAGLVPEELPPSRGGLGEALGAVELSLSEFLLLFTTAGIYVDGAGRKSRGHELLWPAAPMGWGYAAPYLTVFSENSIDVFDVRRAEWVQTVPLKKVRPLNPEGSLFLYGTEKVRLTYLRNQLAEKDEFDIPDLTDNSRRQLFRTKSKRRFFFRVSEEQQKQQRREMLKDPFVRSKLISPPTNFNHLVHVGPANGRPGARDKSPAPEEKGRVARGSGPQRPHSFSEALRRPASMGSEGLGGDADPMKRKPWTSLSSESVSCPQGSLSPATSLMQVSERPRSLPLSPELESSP

[3] = target: Cyclin-dependent kinase 1/cyclin B1 (Homo sapiens) (UniProt P06493+P14635); experiment: Inhibition of human CDK1/cyclin B assessed as enzyme activity at 1 uM using RB Protein as substrate preincubated for 20 mins followed by [gamma-33P]-ATP addition and measured after 120 mins by radiometric Hot-SpotSM Kinase assay relative to control; format: protein-complex assay
Chain of Cyclin-dependent kinase 1/cyclin B1 (Homo sapiens) (P06493 whole entry, looked up): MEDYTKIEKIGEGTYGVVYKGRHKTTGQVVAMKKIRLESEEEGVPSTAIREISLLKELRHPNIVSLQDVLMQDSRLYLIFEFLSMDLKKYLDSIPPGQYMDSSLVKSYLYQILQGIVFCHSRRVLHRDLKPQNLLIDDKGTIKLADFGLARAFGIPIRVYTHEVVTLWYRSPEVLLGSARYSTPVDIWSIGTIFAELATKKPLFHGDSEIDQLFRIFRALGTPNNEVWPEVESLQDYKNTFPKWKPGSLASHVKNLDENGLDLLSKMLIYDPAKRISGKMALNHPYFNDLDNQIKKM
Chain of Cyclin-dependent kinase 1/cyclin B1 (Homo sapiens) (P14635 whole entry, looked up): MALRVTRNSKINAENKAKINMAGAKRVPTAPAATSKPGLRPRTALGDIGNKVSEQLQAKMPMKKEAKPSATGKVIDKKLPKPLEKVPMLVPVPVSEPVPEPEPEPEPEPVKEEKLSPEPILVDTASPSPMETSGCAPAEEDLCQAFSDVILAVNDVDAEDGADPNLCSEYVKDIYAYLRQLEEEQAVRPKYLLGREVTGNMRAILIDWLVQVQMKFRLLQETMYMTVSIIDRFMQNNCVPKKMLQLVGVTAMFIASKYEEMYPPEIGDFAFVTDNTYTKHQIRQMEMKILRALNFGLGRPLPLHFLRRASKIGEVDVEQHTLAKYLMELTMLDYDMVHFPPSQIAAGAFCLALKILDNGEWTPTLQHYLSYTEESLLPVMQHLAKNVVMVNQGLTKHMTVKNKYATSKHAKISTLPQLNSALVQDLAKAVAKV

[4] = target: T1, Kinase suppressor of Ras 1 (Homo sapiens) (UniProt Q8IVT5); experiment: Inhibition of human KSR1 assessed as enzyme activity at 1 uM using KRREILSRRPSYR as substrate preincubated for 20 mins followed by [gamma-33P]-ATP addition and measured after 120 mins by radiometric Hot-SpotSM Kinase assay relative to control
T1 sequence (whole entry): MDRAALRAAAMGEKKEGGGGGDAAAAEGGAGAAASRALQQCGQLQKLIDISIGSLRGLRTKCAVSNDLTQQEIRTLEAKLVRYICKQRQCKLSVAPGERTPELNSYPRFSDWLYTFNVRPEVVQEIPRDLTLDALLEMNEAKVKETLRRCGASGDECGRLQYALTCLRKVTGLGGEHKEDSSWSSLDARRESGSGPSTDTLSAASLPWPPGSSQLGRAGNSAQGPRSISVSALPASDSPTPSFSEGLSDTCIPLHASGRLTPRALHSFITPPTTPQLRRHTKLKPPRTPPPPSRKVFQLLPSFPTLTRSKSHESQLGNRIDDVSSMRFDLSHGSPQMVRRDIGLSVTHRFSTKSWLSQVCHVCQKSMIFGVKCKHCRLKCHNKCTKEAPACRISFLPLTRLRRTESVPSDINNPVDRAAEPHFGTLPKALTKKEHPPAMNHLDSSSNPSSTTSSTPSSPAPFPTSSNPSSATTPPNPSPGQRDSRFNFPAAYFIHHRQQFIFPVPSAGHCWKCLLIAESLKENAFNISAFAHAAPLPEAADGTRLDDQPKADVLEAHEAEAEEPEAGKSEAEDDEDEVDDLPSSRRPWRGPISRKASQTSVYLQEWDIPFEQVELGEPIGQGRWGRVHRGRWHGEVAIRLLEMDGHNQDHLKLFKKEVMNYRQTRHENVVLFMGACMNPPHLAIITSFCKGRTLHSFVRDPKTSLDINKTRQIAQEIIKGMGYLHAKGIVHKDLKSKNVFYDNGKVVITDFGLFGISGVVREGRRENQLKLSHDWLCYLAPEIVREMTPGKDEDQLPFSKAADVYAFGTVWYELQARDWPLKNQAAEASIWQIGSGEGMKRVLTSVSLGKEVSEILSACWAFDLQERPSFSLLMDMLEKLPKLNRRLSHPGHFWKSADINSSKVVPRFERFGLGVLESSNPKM

[5] = target: Casein kinase I isoform gamma-2 (Homo sapiens) (UniProt P78368); experiment: Inhibition of human CK1g2 assessed as enzyme activity at 1 uM using KRRRAL[pS]VASLPGL as substrate preincubated for 20 mins followed by [gamma-33P]-ATP addition and measured after 120 mins by radiometric Hot-SpotSM Kinase assay relative to control
Chain of Casein kinase I isoform gamma-2 (Homo sapiens) (P78368 whole entry, looked up, canonical isoform): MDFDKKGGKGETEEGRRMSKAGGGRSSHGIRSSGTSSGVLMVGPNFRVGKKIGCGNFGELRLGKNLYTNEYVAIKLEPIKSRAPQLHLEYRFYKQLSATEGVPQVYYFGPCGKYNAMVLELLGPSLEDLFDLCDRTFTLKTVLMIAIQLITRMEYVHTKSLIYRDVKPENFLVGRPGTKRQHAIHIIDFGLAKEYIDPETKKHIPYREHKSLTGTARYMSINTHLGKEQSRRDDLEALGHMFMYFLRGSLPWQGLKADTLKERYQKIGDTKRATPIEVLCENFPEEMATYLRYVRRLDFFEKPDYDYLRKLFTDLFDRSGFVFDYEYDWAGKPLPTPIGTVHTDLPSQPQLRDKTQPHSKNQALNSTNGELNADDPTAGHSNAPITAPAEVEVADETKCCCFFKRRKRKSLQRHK

[6] = target: T2, Tyrosine-protein kinase Tec (Homo sapiens) (UniProt P42680); experiment: Inhibition of human TEC assessed as enzyme activity at 1 uM using poly[Glu:Tyr] (4:1) as substrate preincubated for 20 mins followed by [gamma-33P]-ATP addition and measured after 120 mins by radiometric Hot-SpotSM Kinase assay relative to control
T2 sequence (whole entry): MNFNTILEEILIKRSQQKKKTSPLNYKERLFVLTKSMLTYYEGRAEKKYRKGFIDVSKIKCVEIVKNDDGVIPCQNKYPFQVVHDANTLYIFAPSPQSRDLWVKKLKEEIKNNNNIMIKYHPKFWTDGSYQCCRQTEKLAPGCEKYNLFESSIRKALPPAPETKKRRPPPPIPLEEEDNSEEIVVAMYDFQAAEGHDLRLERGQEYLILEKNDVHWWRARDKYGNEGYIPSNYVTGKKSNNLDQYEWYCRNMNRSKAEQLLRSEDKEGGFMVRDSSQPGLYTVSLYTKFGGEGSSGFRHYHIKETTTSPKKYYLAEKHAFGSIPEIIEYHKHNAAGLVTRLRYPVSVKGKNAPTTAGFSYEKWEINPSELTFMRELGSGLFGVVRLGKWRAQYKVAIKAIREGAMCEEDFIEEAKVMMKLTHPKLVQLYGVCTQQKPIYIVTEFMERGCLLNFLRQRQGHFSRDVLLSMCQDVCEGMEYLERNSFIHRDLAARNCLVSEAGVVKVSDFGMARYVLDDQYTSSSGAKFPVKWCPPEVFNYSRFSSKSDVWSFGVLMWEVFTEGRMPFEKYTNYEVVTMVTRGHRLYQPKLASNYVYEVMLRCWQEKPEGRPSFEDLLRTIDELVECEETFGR

[7] = target: Dual specificity tyrosine-phosphorylation-regulated kinase 1B (Homo sapiens) (UniProt Q9Y463); experiment: Inhibition of human DYRK1B assessed as enzyme activity at 1 uM using RRRFRPASPLRGPPK as substrate preincubated for 20 mins followed by [gamma-33P]-ATP addition and measured after 120 mins by radiometric Hot-SpotSM Kinase assay relative to control
Chain of Dual specificity tyrosine-phosphorylation-regulated kinase 1B (Homo sapiens) (Q9Y463 whole entry, looked up): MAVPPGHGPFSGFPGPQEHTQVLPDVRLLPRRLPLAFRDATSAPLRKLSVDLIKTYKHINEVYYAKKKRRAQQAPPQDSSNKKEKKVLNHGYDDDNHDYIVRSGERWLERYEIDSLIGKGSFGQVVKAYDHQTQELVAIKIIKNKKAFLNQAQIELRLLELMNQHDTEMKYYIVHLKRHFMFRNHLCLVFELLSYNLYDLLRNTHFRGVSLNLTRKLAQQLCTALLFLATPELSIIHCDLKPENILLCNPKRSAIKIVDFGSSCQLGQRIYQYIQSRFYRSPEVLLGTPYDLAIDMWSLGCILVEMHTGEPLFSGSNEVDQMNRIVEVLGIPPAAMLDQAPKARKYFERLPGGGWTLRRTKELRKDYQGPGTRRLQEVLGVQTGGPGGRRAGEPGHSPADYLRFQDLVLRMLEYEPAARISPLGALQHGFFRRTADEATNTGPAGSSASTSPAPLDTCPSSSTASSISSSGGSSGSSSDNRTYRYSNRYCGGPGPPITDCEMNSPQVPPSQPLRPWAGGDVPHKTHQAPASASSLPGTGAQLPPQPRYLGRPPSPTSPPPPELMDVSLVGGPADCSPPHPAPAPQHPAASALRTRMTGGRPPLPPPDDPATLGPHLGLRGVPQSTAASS

[8] = target: Receptor-interacting serine/threonine-protein kinase 2 (Homo sapiens) (UniProt O43353); experiment: Inhibition of human RIPK2 assessed as enzyme activity at 1 uM using myelin basic protein as substrate preincubated for 20 mins followed by [gamma-33P]-ATP addition and measured after 120 mins by radiometric Hot-SpotSM Kinase assay relative to control
Chain of Receptor-interacting serine/threonine-protein kinase 2 (Homo sapiens) (O43353 whole entry): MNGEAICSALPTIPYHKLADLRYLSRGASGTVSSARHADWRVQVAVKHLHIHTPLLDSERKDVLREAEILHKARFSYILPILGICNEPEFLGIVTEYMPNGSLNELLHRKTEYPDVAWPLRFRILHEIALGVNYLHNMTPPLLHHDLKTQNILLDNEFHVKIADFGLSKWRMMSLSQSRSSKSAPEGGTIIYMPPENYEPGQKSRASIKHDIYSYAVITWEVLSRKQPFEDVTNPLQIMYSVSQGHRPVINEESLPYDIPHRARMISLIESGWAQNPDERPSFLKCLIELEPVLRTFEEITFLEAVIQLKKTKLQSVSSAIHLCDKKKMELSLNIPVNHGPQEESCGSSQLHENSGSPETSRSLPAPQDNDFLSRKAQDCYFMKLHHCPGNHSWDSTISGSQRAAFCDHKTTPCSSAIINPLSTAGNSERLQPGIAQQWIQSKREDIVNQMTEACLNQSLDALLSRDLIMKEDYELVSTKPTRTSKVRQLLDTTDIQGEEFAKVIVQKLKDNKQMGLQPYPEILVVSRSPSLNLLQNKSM

Chain of Serine/threonine-protein kinase pim-1 (Homo sapiens) (P11309 whole entry, looked up): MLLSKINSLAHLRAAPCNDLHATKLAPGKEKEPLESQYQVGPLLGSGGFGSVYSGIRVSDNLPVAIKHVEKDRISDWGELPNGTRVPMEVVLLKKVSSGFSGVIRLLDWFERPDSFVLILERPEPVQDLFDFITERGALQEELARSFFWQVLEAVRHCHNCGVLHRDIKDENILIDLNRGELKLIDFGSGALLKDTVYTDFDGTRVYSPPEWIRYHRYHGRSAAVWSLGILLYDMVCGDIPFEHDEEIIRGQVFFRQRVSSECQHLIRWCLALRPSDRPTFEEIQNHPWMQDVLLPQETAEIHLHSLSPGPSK

Structure (SMILES) | Activity [1] | Activity [2] | Activity [3] | Activity [4] | Activity [5] | Activity [6] | Activity [7] | Activity [8]
CC[C@H](Nc1ncnc2[nH]cnc12)c1nc2cccc(F)c2c(=O)n1-c1ccccc1 | 99.6% | 97.4% | 102% | 102% | 99.7% | 99.3% | 99.2% | 96.5%
C[C@H](Nc1ncnc2nc[nH]c12)c1cc2cccc(Cl)c2c(=O)n1-c1ccccc1 | 99.6% | 102% | 97% | 99.2% | 98.5% | 95.8% | 99.8% | 92.2%
CC(C)Oc1ccc(-c2nn([C@@H](C)c3oc4ccc(F)cc4c(=O)c3-c3cccc(F)c3)c3ncnc(N)c23)cc1F [UMBRALISIB] | 98.2% | 104% | 98.9% | 103% | 104% | 98.1% | 96.2% | 94.2%

Reference: ChEMBL document CHEMBL5715954, “Silencing c-Myc translation as a therapeutic strategy through targeting PI3Kδ and CK1ε in hematological malignancies” (Blood, 2017)
